Calls of active or inactive are those of the source.
What was measured:
Beta-galactosidase = Beta-galactosidase (Escherichia coli, UniProt Q8VNN2); experiment: detection-enzyme interference by beta-gal modulators – biochemical, E. coli enzyme, set 3, artefact control for CCR6 antagonist project, dose response (AID 504712); format: functional
[1] = molecular target: G-protein coupled receptor 55 (Homo sapiens, UniProt Q9Y2T6); experiment: inhibition of LPI-stimulated GPR55 beta-arrestin translocation – imaging, U2OS, beta-arrestin-GFP, LPI agonist, primary screen (AID 2013); format: functional;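 further: antagonist potency measured as reduced agonist-driven arrestin aggregation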
Bcl-2-related protein A1 = molecular target: T1, Bcl-2-related protein A1 (Mus musculus, UniProt Q07440); format: functional;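 further: confirmatory dose–response counterscreen on Bfl-1, used to check hits from a UBC13 polyubiquitin inhibitor campaign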
T1 sequence (Q07440 whole entry): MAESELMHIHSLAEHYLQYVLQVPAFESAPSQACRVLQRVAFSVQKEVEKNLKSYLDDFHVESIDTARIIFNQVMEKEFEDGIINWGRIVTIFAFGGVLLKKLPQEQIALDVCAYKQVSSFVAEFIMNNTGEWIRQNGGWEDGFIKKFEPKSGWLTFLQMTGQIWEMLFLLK

[2] = molecular target: T2, Ubiquitin-conjugating enzyme E2 N (Homo sapiens, UniProt P61088); format: functional
T2 sequence (P61088 whole entry): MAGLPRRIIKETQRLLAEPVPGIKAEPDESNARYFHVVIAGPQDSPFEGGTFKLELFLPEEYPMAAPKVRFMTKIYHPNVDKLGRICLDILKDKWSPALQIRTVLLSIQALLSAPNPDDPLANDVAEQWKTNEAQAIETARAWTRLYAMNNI

[3] = molecular target: T2, Ubiquitin-conjugating enzyme E2 N; format: functional; remark: listed apart in the source
Large T antigen = Large T antigen (Simian virus 40, UniProt P03070); format: functional, Betapolyomavirus macacae;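 further: Confirmatory-stage PubChem screen for compounds that inhibit SV40 T antigen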
Aminopeptidase N = molecular target: T3, Aminopeptidase N (Plasmodium falciparum FcB1/Columbia, UniProt O96935); experiment: malaria alanyl aminopeptidase activity blockers – biochemical, fluorogenic H-Leu-NHMec substrate, 1536-well (AID 1445); design: species or system Plasmodium falciparum 3D7, 3D7
T3 sequence (O96935 whole entry): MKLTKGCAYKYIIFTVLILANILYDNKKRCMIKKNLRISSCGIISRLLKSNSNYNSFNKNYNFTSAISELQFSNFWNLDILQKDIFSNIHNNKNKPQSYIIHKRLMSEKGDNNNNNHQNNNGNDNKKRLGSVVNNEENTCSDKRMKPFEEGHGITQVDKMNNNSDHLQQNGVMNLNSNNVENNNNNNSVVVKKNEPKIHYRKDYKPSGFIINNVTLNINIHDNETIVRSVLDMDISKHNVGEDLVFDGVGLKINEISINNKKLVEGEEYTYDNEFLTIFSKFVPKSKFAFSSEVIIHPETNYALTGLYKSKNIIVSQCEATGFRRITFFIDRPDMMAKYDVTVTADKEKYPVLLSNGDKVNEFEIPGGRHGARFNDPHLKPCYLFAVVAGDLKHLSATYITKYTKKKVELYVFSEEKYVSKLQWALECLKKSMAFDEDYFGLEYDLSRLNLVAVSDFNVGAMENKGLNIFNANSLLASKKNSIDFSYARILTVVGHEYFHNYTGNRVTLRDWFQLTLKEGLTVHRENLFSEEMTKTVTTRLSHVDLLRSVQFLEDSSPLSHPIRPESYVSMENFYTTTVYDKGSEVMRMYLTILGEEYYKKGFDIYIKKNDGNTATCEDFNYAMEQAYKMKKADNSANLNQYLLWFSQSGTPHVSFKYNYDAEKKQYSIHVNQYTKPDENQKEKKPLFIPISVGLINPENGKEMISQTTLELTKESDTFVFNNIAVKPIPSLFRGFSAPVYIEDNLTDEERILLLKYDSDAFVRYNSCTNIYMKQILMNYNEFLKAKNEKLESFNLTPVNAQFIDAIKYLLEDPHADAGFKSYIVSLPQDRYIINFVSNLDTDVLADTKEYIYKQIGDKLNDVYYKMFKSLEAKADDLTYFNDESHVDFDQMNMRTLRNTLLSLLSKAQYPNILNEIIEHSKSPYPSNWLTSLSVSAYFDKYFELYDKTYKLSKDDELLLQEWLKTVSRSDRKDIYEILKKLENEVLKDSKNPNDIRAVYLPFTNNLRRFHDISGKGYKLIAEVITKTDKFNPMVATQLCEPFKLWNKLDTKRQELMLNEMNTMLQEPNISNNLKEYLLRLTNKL

[4] = molecular target: T4, DNA dC->dU-editing enzyme APOBEC-3G (Homo sapiens, UniProt Q9HC16); format: functional
[5] = molecular target: T5, DNA dC->dU-editing enzyme APOBEC-3A (Homo sapiens, UniProt P31941); experiment: Dose Response confirmation of small molecule APOBEC3A DNA Deaminase Inhibitors via a fluorescence-based single-stranded DNA deaminase assay. [Related pubchem assays (depositor defined):AID493011, AID493024]; format: functional
[6] = molecular target: T6, Alkaline phosphatase, tissue-nonspecific isozyme (Homo sapiens, UniProt P05186); experiment: potency against alkaline phosphatase TNAP – biochemical, luminescent, dose response, SAR follow-up (AID 1056)
T6 sequence (P05186 whole entry): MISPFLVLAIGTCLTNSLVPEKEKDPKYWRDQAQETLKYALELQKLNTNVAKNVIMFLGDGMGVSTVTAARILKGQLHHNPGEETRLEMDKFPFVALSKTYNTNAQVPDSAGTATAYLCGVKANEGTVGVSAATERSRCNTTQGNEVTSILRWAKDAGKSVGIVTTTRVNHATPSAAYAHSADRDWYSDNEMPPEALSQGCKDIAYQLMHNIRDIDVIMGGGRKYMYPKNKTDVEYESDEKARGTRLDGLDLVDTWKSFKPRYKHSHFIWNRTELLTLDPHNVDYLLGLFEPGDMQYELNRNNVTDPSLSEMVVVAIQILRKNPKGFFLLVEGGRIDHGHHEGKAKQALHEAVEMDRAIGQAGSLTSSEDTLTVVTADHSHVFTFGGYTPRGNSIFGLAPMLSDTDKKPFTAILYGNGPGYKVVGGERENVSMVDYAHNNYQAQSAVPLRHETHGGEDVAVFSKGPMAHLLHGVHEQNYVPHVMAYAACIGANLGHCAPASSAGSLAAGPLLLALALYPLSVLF

[7] = molecular target: Glyceraldehyde-3-phosphate dehydrogenase (Homo sapiens, UniProt P04406)
[8] = molecular target: Luciferin 4-monooxygenase (Photinus pyralis, UniProt P08659); experiment: Counter Screen for Luciferase-based Assay Positives. [Related pubchem assays: 620, 618, 411 ]
HT-1080 = experiment: HT1080 cell viability loss – fluorescence readout (AID 620); format: functional, cell-based; conditions: Homo sapiens
Protein skinhead-1 = molecular target: T7, Protein skinhead-1 (Caenorhabditis elegans, UniProt P34707); format: functional
T7 sequence (P34707 whole entry): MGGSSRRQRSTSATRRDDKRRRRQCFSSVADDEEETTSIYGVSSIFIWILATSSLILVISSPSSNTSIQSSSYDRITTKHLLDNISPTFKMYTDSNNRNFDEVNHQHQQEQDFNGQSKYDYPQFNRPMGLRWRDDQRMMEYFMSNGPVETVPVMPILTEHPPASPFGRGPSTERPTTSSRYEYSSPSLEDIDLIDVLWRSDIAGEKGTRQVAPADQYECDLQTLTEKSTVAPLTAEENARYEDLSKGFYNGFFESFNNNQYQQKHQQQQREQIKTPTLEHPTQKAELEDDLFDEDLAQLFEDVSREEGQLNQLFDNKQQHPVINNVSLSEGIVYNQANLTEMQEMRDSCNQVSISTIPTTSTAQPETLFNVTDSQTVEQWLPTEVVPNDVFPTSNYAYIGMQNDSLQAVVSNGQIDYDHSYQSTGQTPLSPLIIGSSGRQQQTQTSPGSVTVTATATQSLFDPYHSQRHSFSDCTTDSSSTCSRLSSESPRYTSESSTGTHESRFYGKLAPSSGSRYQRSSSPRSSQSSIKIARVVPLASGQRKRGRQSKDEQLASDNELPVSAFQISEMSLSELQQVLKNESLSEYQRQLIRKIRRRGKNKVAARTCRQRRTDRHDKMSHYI

[9] = molecular target: T8, Heat shock factor protein 1 (Mus musculus, UniProt P38532); experiment: enhancement of HSF1-driven luciferase signal – cell-based, NIH3T3, luminescence, dose retest, confirmation (AID 435004); format: functional;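 further: stress induced by proteasome inhibitor MG132 added 30 min after compound; luciferase reporter driven by HSF1 response element in NIH3T3 cells; actives raise luminescence as potentiators of the MG132 stress response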
T8 sequence (P38532 whole entry): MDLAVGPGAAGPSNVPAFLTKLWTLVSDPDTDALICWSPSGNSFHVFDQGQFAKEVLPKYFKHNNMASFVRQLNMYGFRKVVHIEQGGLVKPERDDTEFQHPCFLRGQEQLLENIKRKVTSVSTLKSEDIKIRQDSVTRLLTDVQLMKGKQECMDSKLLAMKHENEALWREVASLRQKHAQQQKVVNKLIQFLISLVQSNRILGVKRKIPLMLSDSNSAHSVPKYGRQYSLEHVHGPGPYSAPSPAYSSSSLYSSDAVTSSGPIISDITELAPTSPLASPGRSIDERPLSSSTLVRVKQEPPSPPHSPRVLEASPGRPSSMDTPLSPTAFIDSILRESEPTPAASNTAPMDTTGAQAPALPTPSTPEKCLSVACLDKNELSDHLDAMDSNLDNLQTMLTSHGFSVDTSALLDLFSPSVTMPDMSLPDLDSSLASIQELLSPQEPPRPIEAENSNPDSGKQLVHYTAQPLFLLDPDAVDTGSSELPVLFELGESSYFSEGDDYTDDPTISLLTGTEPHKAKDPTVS

[10] = NIH3T3 cell viability loss – ATP luminescence, mouse fibroblasts, counter-screen, dose response (AID 2010); format: functional, cell-based;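 further: cells exposed to compound for about 90 hours before reading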
[11] = Trypanosoma cruzi growth suppression in host cells – NIH3T3 host cells, beta-gal luminescence, confirmation (AID 2044); format: functional, cell-based;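 further: intracellular parasites grown in NIH/3T3 mouse fibroblasts as host cells; luminescent beta-galactosidase reporter signal from transgenic T. cruzi replicating inside host cells; inhibitors lower the luminescence signal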
Genome polyprotein = Genome polyprotein (dengue virus type 2, UniProt P29990); experiment: flavivirus cap methylation enzyme inhibition – biochemical, confirmation dose response, primary screen (AID 588689); format: functional
[12] = THP-1 cell cytotoxicity, dose response, cytotoxicity control for non-replicating M. tuberculosis project (AID 489025); format: functional
[13] = molecular target: T4, DNA dC->dU-editing enzyme APOBEC-3G; experiment: Dose Response confirmation of small molecule APOBEC3G DNA Deaminase Inhibitors via a fluorescence-based single-stranded DNA deaminase assay. [Related pubchem assays (depositor defined):AID493012, AID493028]; format: functional
[14] = molecular target: T5, DNA dC->dU-editing enzyme APOBEC-3A; experiment: A3A deaminase inhibition for selectivity – biochemical, dose response (AID 504722); format: functional

T5 sequence (P31941 whole entry): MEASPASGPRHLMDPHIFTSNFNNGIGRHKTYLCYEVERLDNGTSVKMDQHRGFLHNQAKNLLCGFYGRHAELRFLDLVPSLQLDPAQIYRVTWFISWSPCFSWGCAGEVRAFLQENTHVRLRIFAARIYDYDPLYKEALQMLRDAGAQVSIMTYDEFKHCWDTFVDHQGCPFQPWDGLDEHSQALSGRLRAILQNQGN
T4 sequence (Q9HC16 whole entry): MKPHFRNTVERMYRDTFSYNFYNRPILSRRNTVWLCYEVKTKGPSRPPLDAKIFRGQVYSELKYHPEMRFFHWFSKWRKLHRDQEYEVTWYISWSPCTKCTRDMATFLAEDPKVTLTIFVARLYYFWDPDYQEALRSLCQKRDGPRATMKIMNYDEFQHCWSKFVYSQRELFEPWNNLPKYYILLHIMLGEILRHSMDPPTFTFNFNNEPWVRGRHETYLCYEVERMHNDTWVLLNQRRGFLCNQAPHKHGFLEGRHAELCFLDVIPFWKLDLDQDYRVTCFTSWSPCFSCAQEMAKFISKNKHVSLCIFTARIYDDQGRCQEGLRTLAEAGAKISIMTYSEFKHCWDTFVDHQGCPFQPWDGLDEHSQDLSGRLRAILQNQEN
Glyceraldehyde-3-phosphate dehydrogenase, sequence (P04406 whole entry): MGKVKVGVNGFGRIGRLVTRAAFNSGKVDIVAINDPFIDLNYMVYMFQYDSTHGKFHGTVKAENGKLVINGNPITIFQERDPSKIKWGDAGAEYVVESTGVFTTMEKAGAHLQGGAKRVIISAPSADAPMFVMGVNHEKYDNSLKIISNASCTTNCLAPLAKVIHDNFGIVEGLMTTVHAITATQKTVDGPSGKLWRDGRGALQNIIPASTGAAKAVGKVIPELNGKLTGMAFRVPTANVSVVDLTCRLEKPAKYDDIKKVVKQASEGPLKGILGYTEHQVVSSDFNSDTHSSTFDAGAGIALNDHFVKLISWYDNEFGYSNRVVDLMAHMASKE
G-protein coupled receptor 55, sequence (Q9Y2T6 whole entry): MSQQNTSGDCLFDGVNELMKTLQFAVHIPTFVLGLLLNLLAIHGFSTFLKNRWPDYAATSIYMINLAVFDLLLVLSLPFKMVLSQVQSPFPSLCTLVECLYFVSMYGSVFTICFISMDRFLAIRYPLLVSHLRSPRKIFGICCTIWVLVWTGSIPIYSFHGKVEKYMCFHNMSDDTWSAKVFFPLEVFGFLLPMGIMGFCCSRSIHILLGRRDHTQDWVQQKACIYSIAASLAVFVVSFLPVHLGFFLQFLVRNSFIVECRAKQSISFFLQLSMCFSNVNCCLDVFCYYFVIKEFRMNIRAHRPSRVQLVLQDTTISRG
Luciferin 4-monooxygenase, sequence (P08659 whole entry): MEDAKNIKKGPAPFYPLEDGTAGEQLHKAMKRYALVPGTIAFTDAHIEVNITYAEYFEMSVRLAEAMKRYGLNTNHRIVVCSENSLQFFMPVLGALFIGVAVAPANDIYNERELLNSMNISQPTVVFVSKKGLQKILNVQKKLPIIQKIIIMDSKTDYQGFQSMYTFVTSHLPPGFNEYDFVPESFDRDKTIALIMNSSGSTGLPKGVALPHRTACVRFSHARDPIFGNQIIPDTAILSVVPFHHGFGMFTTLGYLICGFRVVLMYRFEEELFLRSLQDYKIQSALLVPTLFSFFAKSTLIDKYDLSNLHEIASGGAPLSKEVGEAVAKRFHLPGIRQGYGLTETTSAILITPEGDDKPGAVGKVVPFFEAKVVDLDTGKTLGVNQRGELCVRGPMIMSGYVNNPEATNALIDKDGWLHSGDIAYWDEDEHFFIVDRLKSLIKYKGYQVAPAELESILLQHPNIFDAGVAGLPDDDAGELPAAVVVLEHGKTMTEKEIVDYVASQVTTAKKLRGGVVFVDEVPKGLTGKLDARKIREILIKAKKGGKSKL
Beta-galactosidase, sequence (Q8VNN2 whole entry): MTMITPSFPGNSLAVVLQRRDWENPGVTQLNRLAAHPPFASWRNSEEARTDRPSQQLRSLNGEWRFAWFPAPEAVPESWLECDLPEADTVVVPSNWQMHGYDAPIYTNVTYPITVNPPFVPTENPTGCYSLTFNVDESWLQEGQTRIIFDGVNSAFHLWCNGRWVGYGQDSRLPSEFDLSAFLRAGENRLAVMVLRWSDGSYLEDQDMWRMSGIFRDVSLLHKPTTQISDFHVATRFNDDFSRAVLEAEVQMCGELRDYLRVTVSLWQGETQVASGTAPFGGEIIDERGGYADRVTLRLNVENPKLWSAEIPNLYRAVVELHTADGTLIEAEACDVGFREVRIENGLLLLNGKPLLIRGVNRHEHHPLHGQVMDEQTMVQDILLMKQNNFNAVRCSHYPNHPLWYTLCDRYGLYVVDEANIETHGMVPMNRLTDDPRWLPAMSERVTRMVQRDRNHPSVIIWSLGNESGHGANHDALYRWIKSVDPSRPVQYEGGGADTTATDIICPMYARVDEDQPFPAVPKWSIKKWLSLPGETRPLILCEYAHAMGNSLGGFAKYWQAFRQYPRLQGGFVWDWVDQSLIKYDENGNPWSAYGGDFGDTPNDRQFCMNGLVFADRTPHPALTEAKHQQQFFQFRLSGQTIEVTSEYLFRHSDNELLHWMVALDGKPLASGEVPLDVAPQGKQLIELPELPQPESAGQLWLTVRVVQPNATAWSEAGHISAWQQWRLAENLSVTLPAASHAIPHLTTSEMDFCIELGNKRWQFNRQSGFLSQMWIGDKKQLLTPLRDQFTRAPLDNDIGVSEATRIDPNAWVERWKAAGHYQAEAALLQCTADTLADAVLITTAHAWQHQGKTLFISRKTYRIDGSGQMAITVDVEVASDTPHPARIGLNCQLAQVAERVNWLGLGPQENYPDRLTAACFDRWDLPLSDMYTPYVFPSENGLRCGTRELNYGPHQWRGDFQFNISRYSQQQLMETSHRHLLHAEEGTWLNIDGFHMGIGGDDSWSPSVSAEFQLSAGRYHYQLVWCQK
Genome polyprotein, sequence (P29990 2492-3391 limits assumed): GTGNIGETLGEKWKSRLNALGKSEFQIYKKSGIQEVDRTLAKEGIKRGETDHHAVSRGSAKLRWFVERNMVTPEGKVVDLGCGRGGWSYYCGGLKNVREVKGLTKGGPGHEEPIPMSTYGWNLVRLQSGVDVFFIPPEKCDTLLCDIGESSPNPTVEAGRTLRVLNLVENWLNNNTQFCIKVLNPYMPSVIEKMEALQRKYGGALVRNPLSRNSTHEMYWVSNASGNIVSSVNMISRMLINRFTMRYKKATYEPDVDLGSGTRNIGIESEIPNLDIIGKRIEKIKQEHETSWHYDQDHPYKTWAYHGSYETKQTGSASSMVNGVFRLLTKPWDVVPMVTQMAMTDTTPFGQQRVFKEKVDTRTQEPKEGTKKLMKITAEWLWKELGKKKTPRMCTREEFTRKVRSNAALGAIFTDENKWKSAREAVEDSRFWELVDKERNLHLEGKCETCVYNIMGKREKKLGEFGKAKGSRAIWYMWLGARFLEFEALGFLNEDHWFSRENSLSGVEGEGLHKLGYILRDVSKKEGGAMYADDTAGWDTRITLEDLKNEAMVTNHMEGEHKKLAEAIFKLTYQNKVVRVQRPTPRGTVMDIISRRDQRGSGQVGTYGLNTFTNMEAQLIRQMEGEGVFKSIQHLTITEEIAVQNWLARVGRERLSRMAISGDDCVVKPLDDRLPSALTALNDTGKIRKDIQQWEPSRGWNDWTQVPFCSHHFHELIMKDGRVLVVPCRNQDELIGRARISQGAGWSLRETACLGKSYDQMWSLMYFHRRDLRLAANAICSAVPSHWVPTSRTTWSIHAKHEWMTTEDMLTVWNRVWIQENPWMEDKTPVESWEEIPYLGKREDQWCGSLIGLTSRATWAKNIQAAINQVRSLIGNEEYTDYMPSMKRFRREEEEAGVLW
Large T antigen, sequence (P03070 whole entry): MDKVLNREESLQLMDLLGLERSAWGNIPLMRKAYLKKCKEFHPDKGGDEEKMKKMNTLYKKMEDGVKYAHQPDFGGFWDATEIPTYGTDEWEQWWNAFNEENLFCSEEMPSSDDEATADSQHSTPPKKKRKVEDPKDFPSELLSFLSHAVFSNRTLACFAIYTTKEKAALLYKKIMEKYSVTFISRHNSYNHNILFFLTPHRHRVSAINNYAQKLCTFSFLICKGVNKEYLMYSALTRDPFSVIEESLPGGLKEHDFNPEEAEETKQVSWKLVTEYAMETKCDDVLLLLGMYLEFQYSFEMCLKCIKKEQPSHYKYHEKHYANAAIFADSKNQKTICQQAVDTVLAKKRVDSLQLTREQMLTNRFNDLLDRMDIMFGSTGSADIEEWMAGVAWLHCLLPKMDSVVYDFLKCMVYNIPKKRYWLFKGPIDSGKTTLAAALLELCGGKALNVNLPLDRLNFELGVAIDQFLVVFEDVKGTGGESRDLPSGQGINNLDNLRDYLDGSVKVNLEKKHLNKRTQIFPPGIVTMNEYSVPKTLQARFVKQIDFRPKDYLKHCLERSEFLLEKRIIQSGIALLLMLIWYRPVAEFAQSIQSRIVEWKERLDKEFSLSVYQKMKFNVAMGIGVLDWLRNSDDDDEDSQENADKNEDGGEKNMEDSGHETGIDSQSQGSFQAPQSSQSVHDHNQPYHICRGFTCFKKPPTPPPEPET

O=C(Nc1ccccc1Cl)c1ccccc1Oc1ccc(C(F)(F)F)cc1[N+](=O)[O-]
IC50 (Beta-galactosidase): > 66.6 µM (inactive)
IC50 [1]: 3.31 µM (active)

CC(=O)c1ccc(OCC(O)CN2CCN(CCN3C(=O)c4cccc5cccc(c45)C3=O)CC2)cc1 (stereo unspecified)
IC50 (Bcl-2-related protein A1): > 20 µM (inactive)
IC50 [2]: 4.79 µM (active)
IC50 [3]: 4.17 µM (active)

O=C(O)c1cc(S(=O)(=O)Nc2ccc3oc(=O)sc3c2)ccc1O
IC50 (Large T antigen): 33.3 µM (active)
IC50 (Aminopeptidase N): 70.9 µM (active)

COc1ccc(-c2nnc(SCC(=O)Nc3cc(S(=O)(=O)N4CCCCC4)ccc3Cl)n2N)cc1
IC50 (Aminopeptidase N): 39.3 µM (active)

COc1ccc(C(CC(=O)N2CCOCC2)c2c(OC)cc(OC)c3c(-c4ccccc4)cc(=O)oc23)cc1 (stereo unspecified)
IC50 [4]: 50.9 µM (active)
IC50 [5]: 17 µM (active)

COc1ccc(Cc2nnc(N3C(=O)c4ccccc4C3=O)[nH]2)cc1
IC50 [6]: > 100 µM (inactive)
IC50 [7]: > 100 µM (not active)

CCc1cccc(NC(=O)C[n+]2c3n(c4ccc(C(F)(F)F)cc42)CCCCC3)c1
IC50 [4]: 5.22 µM (active)
IC50 [5]: 2.69 µM (active)

CN1CCN(C(=O)CCN2C(=O)/C(=C/c3ccccc3Cl)SC2=S)CC1
IC50 (Bcl-2-related protein A1): > 20 µM (inactive)
IC50 [2]: 17.8 µM (active)
IC50 [3]: > 20 µM (inactive)

CCCc1cc(C(=O)Nc2nccs2)cs1
EC50 [8]: < 0.2 µM (active)
EC50 (HT-1080): > 50 µM (not active)
IC50 (Protein skinhead-1): > 100 µM (inactive)
EC50 [9]: > 260 µM (inconclusive)

O=C(COc1ccccc1/C=C\c1nc(O)nc(O)c1[N+](=O)[O-])Nc1ccccc1
EC50 [10]: > 60 µM (not active)
EC50 [11]: > 60 µM (not active)
IC50 (Genome polyprotein): 39.9 µM (active)
IC50 (Aminopeptidase N): 42.9 µM (active)

COc1ccc(O)c(C(=O)CC(=O)c2ccc(F)cc2)c1
EC50 [8]: 0.35 µM (active)
EC50 (HT-1080): > 50 µM (not active)
CC50 [12]: > 40 µM (active)

Cc1ccc(NS(=O)(=O)c2ccc3[nH]c(=O)c(=O)[nH]c3c2)cc1Cl
IC50 (Aminopeptidase N): 41.9 µM (active)

CC(=O)Nc1nc(SCCCc2ccccc2)n[nH]1
IC50 [6]: 6 µM (active)
IC50 [7]: > 100 µM (not active)

COc1ccccc1NC(=O)CN1CCC(n2nnc3cc(F)ccc32)CC1
IC50 (Bcl-2-related protein A1): > 20 µM (inactive)
IC50 [2]: 15.4 µM (active)
IC50 [3]: 17.8 µM (active)

COc1cc(C2Nn3c(nnc3-c3ccccc3OC)S2)ccc1O (stereo unspecified)
IC50 [13]: 3.57 µM (active)
IC50 [14]: > 100 µM (inactive)

CCN(CC)C(=O)c1ncn(C)c1C(=O)N(CC)CC
IC50 [4]: 3.23 µM (active)
IC50 [5]: 3.51 µM (active)

O=[N+]([O-])c1ccc(/C=N/n2c(S)nnc2-c2cccnc2)cc1
IC50 [13]: 2.3 µM (active)
IC50 [14]: > 100 µM (inactive)

O=C1OC(c2ccc(O)cc2)(c2ccc(O)cc2)c2ccccc21 [PHENOLPHTHALEIN]
IC50 [1]: 6.67 µM (active)

Reference: ChEMBL document CHEMBL1201862, “PubChem BioAssay data set” (2004)
